± gives the uncertainty stated by the source.
Test: xn = mol fraction of the nth substance listed

## CC(=O)CC(C)C + CC(C)CCO
298.15 K, 101 kPa, x1 = 0.1006
  viscosity: 2.58 ± 0.03 mPa·s
298.15 K, 101 kPa, x1 = 0.2027
  viscosity: 1.89 ± 0.02 mPa·s
298.15 K, 101 kPa, x1 = 0.3201
  viscosity: 1.4 ± 0.02 mPa·s
298.15 K, 101 kPa, x1 = 0.3948
  viscosity: 1.2 ± 0.02 mPa·s
298.15 K, 101 kPa, x1 = 0.5073
  viscosity: 0.965 ± 0.012 mPa·s
298.15 K, 101 kPa, x1 = 0.6072
  viscosity: 0.839 ± 0.011 mPa·s
298.15 K, 101 kPa, x1 = 0.7013
  viscosity: 0.728 ± 0.009 mPa·s
298.15 K, 101 kPa, x1 = 0.8032
  viscosity: 0.648 ± 0.008 mPa·s
298.15 K, 101 kPa, x1 = 0.8927
  viscosity: 0.595 ± 0.008 mPa·s
298.15 K, 101.3 kPa, x1 = 0.1006
  viscosity: 2.58 ± 0.071 mPa·s
298.15 K, 101.3 kPa, x1 = 0.2027
  viscosity: 1.89 ± 0.052 mPa·s
298.15 K, 101.3 kPa, x1 = 0.3201
  viscosity: 1.4 ± 0.038 mPa·s
298.15 K, 101.3 kPa, x1 = 0.3948
  viscosity: 1.2 ± 0.033 mPa·s
298.15 K, 101.3 kPa, x1 = 0.5073
  viscosity: 0.965 ± 0.027 mPa·s
298.15 K, 101.3 kPa, x1 = 0.6072
  viscosity: 0.839 ± 0.023 mPa·s
298.15 K, 101.3 kPa, x1 = 0.7013
  viscosity: 0.728 ± 0.02 mPa·s
298.15 K, 101.3 kPa, x1 = 0.8032
  viscosity: 0.648 ± 0.018 mPa·s
298.15 K, 101.3 kPa, x1 = 0.8927
  viscosity: 0.595 ± 0.016 mPa·s
303.15 K, 101.3 kPa, x1 = 0.1006
  viscosity: 2.26 ± 0.062 mPa·s
303.15 K, 101.3 kPa, x1 = 0.2027
  viscosity: 1.69 ± 0.046 mPa·s
303.15 K, 101.3 kPa, x1 = 0.3201
  viscosity: 1.28 ± 0.035 mPa·s
303.15 K, 101.3 kPa, x1 = 0.3948
  viscosity: 1.1 ± 0.03 mPa·s
303.15 K, 101.3 kPa, x1 = 0.5073
  viscosity: 0.903 ± 0.025 mPa·s
303.15 K, 101.3 kPa, x1 = 0.6072
  viscosity: 0.781 ± 0.022 mPa·s
303.15 K, 101.3 kPa, x1 = 0.7013
  viscosity: 0.682 ± 0.019 mPa·s
303.15 K, 101.3 kPa, x1 = 0.8032
  viscosity: 0.617 ± 0.017 mPa·s
303.15 K, 101.3 kPa, x1 = 0.8927
  viscosity: 0.566 ± 0.016 mPa·s
308.15 K, 101.3 kPa, x1 = 0.1006
  viscosity: 1.99 ± 0.055 mPa·s
308.15 K, 101.3 kPa, x1 = 0.2027
  viscosity: 1.51 ± 0.041 mPa·s
308.15 K, 101.3 kPa, x1 = 0.3201
  viscosity: 1.17 ± 0.032 mPa·s
308.15 K, 101.3 kPa, x1 = 0.3948
  viscosity: 1.01 ± 0.028 mPa·s
308.15 K, 101.3 kPa, x1 = 0.5073
  viscosity: 0.837 ± 0.023 mPa·s
308.15 K, 101.3 kPa, x1 = 0.6072
  viscosity: 0.728 ± 0.02 mPa·s
308.15 K, 101.3 kPa, x1 = 0.7013
  viscosity: 0.64 ± 0.018 mPa·s
308.15 K, 101.3 kPa, x1 = 0.8032
  viscosity: 0.579 ± 0.016 mPa·s
308.15 K, 101.3 kPa, x1 = 0.8927
  viscosity: 0.534 ± 0.015 mPa·s
313.15 K, 101.3 kPa, x1 = 0.1006
  viscosity: 1.75 ± 0.048 mPa·s
313.15 K, 101.3 kPa, x1 = 0.2027
  viscosity: 1.36 ± 0.037 mPa·s
313.15 K, 101.3 kPa, x1 = 0.3201
  viscosity: 1.05 ± 0.029 mPa·s
313.15 K, 101.3 kPa, x1 = 0.3948
  viscosity: 0.926 ± 0.025 mPa·s
313.15 K, 101.3 kPa, x1 = 0.5073
  viscosity: 0.766 ± 0.021 mPa·s
313.15 K, 101.3 kPa, x1 = 0.6072
  viscosity: 0.681 ± 0.019 mPa·s
313.15 K, 101.3 kPa, x1 = 0.7013
  viscosity: 0.602 ± 0.017 mPa·s
313.15 K, 101.3 kPa, x1 = 0.8032
  viscosity: 0.545 ± 0.015 mPa·s
313.15 K, 101.3 kPa, x1 = 0.8927
  viscosity: 0.506 ± 0.014 mPa·s

## CC(=O)CC(C)C + CC(C)CO
298.15 K, 101 kPa, x2 = 0.4937
  viscosity: 0.851 mPa·s
303.15 K, 101 kPa, x2 = 0.3997
  viscosity: 0.703 mPa·s
303.15 K, 101 kPa, x2 = 0.4937
  viscosity: 0.786 mPa·s
308.15 K, 101 kPa, x2 = 0.3997
  viscosity: 0.656 mPa·s
308.15 K, 101 kPa, x2 = 0.4937
  viscosity: 0.73 mPa·s

## O=C1CCCCC1 + CC(C)CO
298.15 K, 101 kPa, x1 = 0.1012
  viscosity: 2.58 ± 0.03 mPa·s
298.15 K, 101 kPa, x1 = 0.2016
  viscosity: 2.15 ± 0.03 mPa·s
298.15 K, 101 kPa, x1 = 0.299
  viscosity: 1.9 ± 0.02 mPa·s
298.15 K, 101 kPa, x1 = 0.3994
  viscosity: 1.77 ± 0.02 mPa·s
298.15 K, 101 kPa, x1 = 0.5008
  viscosity: 1.72 ± 0.02 mPa·s
298.15 K, 101 kPa, x1 = 0.5978
  viscosity: 1.7 ± 0.02 mPa·s
298.15 K, 101 kPa, x1 = 0.6982
  viscosity: 1.69 ± 0.02 mPa·s
298.15 K, 101 kPa, x1 = 0.7981
  viscosity: 1.71 ± 0.02 mPa·s
298.15 K, 101 kPa, x1 = 0.8985
  viscosity: 1.77 ± 0.02 mPa·s

Source: the CheMixHub viscosity set
